Data: US20250145715A1, “B7-H3 TARGETING FUSION PROTEINS AND METHODS OF USE THEREOF” (GT Biopharma, Inc., priority 2021, published 2025)

Legend:
PC-3 cells = test: PC3 standard IncuCyte real-time killing assay; assay type: cell-based, human; settings: IncuCyte platform
Protocol: FIG. 16 is a graph illustrating a PC3 standard IncuCyte Assay.
Tumor killing was evaluated in real-time using the IncuCyte platform. […] Caspase-3/7 green dye (Sartorious, Ann Arbor, MI, USA) was added to pick up dying cells that have not yet lost NuclightRed fluorescence. Noted treatments were then added at a 30 nM concentration, and the plate was placed in an IncuCyte ZOOM® platform housed inside a cell incubator at 37° C./5% C02. Images from three technical replicates were taken every 15 min for 48 h using a 4× objective lens and then analyzed using IncuCyte™ Basic Software v2018A (Sartorious). Graphed readouts represent percentage live OVCAR8 targets (NuclightRed+Caspase-3/7−), normalized to live targets alone at the starting (0 h) time point.

[1] = system: MA-148 ovarian cancer cells; test: NK cell CD107a / IFNγ flow cytometry against MA-148; assay type: cell-based, human; settings: vs controls
Protocol: FIG. 29A is a graph illustrating pooled proportion of NK cells from healthy donors expressing CD107a+ (degranulation) against OVCAR8 and MA148 targets. FIG. 29B is a graph illustrating pooled proportion of NK cells from healthy donors expressing IFNγ cytokine production against OVCAR8 and MA148 targets.
Healthy donor or ovarian cancer PBMC cells were incubated with ovarian tumor targets at 2:1 E:T ratio for 4 hrs with 30 nM TriKE or control condition. FIG. 30A is a graph illustrating pooled proportion of NK cells from healthy donors expressing CD107a+ (degranulation) against OVCAR8 targets (N=8). […] FIG. 30I is a graph illustrating that tumor killing was evaluated using IncuCyte imaging assay. […] The percentage of Live (Nuclight Red+Caspase 3/7−) tumor cells was quantified over a 48-h period and normalized to tumor alone. Readings were obtained every 15 min (representative of four separate experiments). * p<0.05, ** p<0.01, *** p<0.001, and **** p<0.0001.
ADCC was measured in a flow cytometry assay by evaluating degranulation via CD107a (lysosomal-associated membrane protein LAMP-1) and intracellular IFNγ production. […] Samples were washed and evaluated in an LSRII flow cytometer (BD Biosciences, San Jose, CA, USA).
The ability of cam1615B7-H3 TriKE to mediate NK cell activity against ovarian cancer cells was evaluated. […]

[2] = Toxicity assessment, weights of NSG mice engrafted with NK cells; assay type: in vivo; settings: irradiated NSG mice, 1 million NK cells, treated three weeks, weights tracked 90 days
Protocol: As illustrated in FIGS. 32A-32F, cam1615B7-H3 TriKE mediates anti-tumor activity in vivo. Determination of in vivo activity is a critical step for translation. However, prior to evaluating the ability of the cam1615B7-H3 TriKE to induce function against tumor the potential for toxicity was assessed. To do this NSG mice were irradiated, engrafted with 1 million NK cells, treated with nothing, IL-15, or cam1615B7-H3 for three weeks, and weights were tracked over the course of 90 days post initial treatment. […] This is not surprising given the low toxicity profile of IL-15 and the safety profile of B7-H3. […] In this model, human NK cells and human high grade serous MA-148-luc cells are injected into the peritoneal cavity of NSG mice.

Substance	real-time tumor killing of PC-3 cells (PC-3 cells)	NK cell activity against MA-148 ([1]; normal donor NK cells)	NK cell degranulation against MA-148 ([1]; ovarian-cancer-derived ascites samples)	body weight vs controls [2]
B7-H3 TriKE: camelid nanobodies targeting CD16 and B7-H3 joined by IL-15 and two linkers; sequence table equates the name with cam1615B7-H3	enhanced efficacy	–	–	–
cam1615B7-H3: second-generation TriKE: humanized camelid anti-CD16 VHH, human wild-type IL-15, anti-B7-H3 mAb 376.96 scFv; SEQ ID NO:1	–	robust activity	significantly enhanced NK cell degranulation	no significant differences
